Experiment [1] has as its target T1, MOR (Mus musculus, UniProt P42866). Put plainly: Competition radioligand binding at the MOR. The note with it: [3H]naloxone, CHO cells expressing mouse MOR.
The target of experiment [2] is T1, MOR. The settings on record: cited from earlier work.
Experiment [3] has as its system MOR. The note with it: peripherally selective MOR antagonist; cited from earlier work.
Experiment [4] concerns the target T1, MOR. The note with it: read-out: Ki (nM) MOR; ref 57a; cited from earlier work.
A further experiment addresses DOR (Mus musculus, UniProt P32300). The note with it: ref 57a, cited from earlier work.
In experiment [5] the target is T2, KOR (Mus musculus, UniProt P33534). The note with it: ref 57a, cited from earlier work.
T2 sequence (P33534 whole entry): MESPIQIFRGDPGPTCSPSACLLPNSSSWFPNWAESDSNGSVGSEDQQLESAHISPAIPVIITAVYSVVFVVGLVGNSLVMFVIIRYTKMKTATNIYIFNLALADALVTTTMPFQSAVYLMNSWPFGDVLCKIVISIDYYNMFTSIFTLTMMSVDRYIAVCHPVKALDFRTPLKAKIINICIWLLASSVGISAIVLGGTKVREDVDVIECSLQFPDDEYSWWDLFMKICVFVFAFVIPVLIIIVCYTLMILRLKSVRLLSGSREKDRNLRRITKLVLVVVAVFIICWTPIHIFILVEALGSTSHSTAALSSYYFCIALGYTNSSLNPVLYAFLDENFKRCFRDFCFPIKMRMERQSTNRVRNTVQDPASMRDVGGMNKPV
In experiment [6] the target is T2, KOR. The settings on record: read-out: Ki,κ; 50a; cited from earlier work.

Molecules are shown by their SMILES. Read-outs that look alike come from different tables or passages of the source.

T1 sequence (P42866 whole entry): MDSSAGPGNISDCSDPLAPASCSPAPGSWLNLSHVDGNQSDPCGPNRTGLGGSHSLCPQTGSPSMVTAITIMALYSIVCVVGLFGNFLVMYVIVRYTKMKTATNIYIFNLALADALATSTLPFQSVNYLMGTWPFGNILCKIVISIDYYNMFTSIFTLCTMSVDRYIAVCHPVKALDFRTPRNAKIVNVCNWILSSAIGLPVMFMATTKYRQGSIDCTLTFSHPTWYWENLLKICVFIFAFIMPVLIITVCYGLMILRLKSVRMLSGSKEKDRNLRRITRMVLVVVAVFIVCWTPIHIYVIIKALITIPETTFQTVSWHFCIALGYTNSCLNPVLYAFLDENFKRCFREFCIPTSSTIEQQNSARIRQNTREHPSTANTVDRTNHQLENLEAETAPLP
Chain of DOR (P32300 whole entry): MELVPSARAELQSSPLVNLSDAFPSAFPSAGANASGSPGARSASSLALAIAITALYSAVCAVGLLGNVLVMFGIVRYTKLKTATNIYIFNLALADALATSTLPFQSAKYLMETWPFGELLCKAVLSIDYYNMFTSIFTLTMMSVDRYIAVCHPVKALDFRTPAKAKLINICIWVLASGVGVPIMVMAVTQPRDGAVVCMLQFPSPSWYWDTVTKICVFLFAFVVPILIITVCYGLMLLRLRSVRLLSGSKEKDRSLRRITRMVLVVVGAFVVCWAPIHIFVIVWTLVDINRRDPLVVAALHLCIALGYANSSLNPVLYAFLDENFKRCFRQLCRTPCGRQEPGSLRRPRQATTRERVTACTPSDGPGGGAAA

With `COC(=O)c1cnccc1C(=O)N[C@@H]1CC[C@@]2(O)[C@H]3Cc4ccc(O)c5c4[C@@]2(CCN3CC2CC2)[C@H]1O5` [Compound 6, 17-Cyclopropylmethyl-3,14β-dihydroxy-4,5α-epoxy-6β-[(3′-methylformate-4′-pyridyl)acetamido]morphinan], the “Ki (nM) MOR” value on MOR [1] was “nanomolar binding affinity”.

In general, ED50 refers to the dose that gives a 50% effect, or the effect in half of the subjects. As for `O=C(N[C@@H]1CC[C@@]2(O)[C@H]3Cc4ccc(O)c5c4[C@@]2(CCN3CC2CC2)[C@H]1O5)c1ccncc1` [NAP, 17-cyclopropylmethyl-3,14β-dihydroxy-4,5α-epoxy-6β-(4′-pyridylcarboxamido)-morphinan], the “MOR [35S]GTPγS Binding % Emax of DAMGO” value at MOR [2] (ref 44a) is 22.72 ± 0.84%. Besides, the median effective dose (ED50) in the experiment with MOR [3] is 8.8 µg/kg.

As a reminder, the Ki is the equilibrium dissociation constant of an inhibitor or competing ligand from its target. For orientation: EC50 means the concentration giving half of the maximal effect. For the compound `Cc1cnccc1C(=O)N[C@@H]1CC[C@@]2(O)[C@H]3Cc4ccc(O)c5c4[C@@]2(CCN3CC2CC2)[C@H]1O5` [NMP, 17-cyclopropylmethyl-3,14β-dihydroxy-4,5α-epoxy-6β-{[4′-(3′-methylpyridyl)]carboxamido}morphinan], the Ki at MOR [4] was 0.58 ± 0.25 nM; on DOR (read-out: Ki (nM) DOR) it was 273.6 ± 1.8 nM; on KOR [5] (read-out: Ki (nM) KOR) it was 96.7 ± 12.2 nM. Also, at DOR, the “Selectivity δ/μ” value is listed as 470. For the same compound, on KOR [5], the “Selectivity κ/μ” value was 166. The EC50 on MOR [2] (read-out: MOR [35S]GTPγS Binding EC50, ref 57a) was 1.52 ± 0.26 nM. For the same compound, at MOR [2] (ref 57a), the “MOR [35S]GTPγS Binding % Emax of DAMGO” value is reported as 30.63 ± 0.55%.

Turning to `Oc1ccc2c3c1O[C@H]1c4[nH]c5c(c4C[C@@]4(O)[C@@H](C2)N(CC2CC2)CC[C@]314)C[C@@]1(O)[C@H]2Cc3ccc(O)c4c3[C@@]1(CCN2CC1CC1)[C@H]5O4` [norBNI], at KOR [6], the Ki was 1.8 nM.

The values are drawn from publication PMC6467700 (Journal of medicinal chemistry, 2019).
